From publication PMC7767381, “Exploring the Anti-Cancer Mechanism of Novel 3,4′-Substituted Diaryl Guanidinium Derivatives” (Pharmaceuticals, 2020)
Entries after “also recorded” stand apart in the source; their conditions may differ. Structures can show the parent of a compound that is named as a salt.

Experiments:
HL-60 cells = test: alamarBlue cell viability assay, HL-60; assay type: cell-based; details: Homo sapiens, HL-60, 72 h, alamarBlue, 72 h; read-out: HL-60 IC50 ± SEM
Excerpt: Cell viability and proliferation assays were used to evaluate the in vitro cytotoxicity of all synthesised compounds in a variety of different cancer cell lines using the alamarBlue® viability assay and the results are presented in Table 1 and Table 2. The sensitivity of cancer cells to drugs can often be compromised by PIK3CA, Ras and BRAF mutations. To determine whether such mutations are critical to the efficacy of our new compounds we tested them in a range of cancerous cell lines expressing different mutations. Firstly, we used the HL-60 (human promyelocytic leukaemia, NRas mutated) cell line for general cytotoxicity screening of all compounds. […] Lastly, toxicity against MCF-10A, which is a non-tumorigenic epithelial cell line, was also assessed for one of the most promising compounds (4). The graphs representing the viability results with the HL-60, MCF-7, HeLa, HCT-116, and HKH-2 cancer cell lines for compound 1 and derivatives 2, 3, and 4 are shown in Figures S7–S10 (ESI).
Cells were counted and seeded in 96-well plates at a density of 2 × 10^5 cells/mL for HL-60, 2.5 × 10^4 cells/mL for MCF-7, MCF10A and HeLa, 1 × 10^5 cells/mL for HCT116 and HKH-2, all of them in their respective media. The 96-well plates were then treated with a 1:100 dilution of stock concentrations of drugs or EtOH (1% v/v)/DMSO (0.1% v/v) as vehicle control in triplicate. Three blank wells containing 200 µL RPMI with no cells were also set-up as blanks. After a 72 h incubation, 20 µL of alamarBlue was added to each well. The plates were incubated in darkness at 37 °C for 4–5 h using a Molecular Devices microplate reader, the fluorescence (F) was then read at an excitation wavelength of 544 nm and an emission wavelength of 590 nm. Cell viability was then determined by subtracting the mean blank fluorescence (Fb) from the treated sample fluorescence (Fs) and expressing this as a percentage of the fluorescence of the blanked vehicle control (Fc). […] The results were then plotted as a nonlinear regression, sigmoidal dose-response curves on Prism, from which the IC50 value for each drug was determined. […]
Pharmacy, TCD. It was maintained in Roswell Park Memorial Institute (RPMI) 1640 medium with stable glutamate (GlutaMax I) supplemented with 10% (v/v) fetal bovine serum (FBS), 1% (v/v) penicillin/ streptomycin (pen-strep) and 2 mM L-glutamine. […]
4.4. AlamarBlue ® Cell Viability Assay
Cells were counted and seeded in 96 well plates at a density of 2 × 10^5 cells/mL for HL-60, 2.5× 10^4 cells/mL for MCF-7, MCF10A and HeLa, 1 × 10^5 cells/mL for HCT116 and HKH-2, all of them in their respective media. The 96 well plates were then treated with a 1:100 dilution of stock concentrations of drugs or EtOH (1% v/v)/DMSO (0.1% v/v) as vehicle control in triplicate.
Three blank wells containing 200 µL media with no cells were also set-up as blanks. After a 72 h incubation, 20 µL of AlamarBlue was added to each well. The plates were incubated in darkness at 37 °C for 4-5 h. Using a Molecular Devices microplate reader, the fluorescence (F) was then read at an excitation wavelength of 544 nm and an emission wavelength of 590 nm.
Cell viability was then determined by subtracting the mean blank fluorescence (Fb) from the treated sample fluorescence (Fs) and expressing this as a percentage of the fluorescence of the blanked vehicle control (Fc). […] The results were […]
then plotted as a nonlinear regression, sigmoidal dose-response curves on Prism, from which the IC50 value for each drug was determined.
Fs − Fb x 100 = % Cell Viability
60 cell line in a dose-dependent manner.
(1 picture or pasted object on this page, not shown here)

[1] = system: ERK phosphorylation (MAPK/ERK pathway); test: Western immunoblot of ERK phosphorylation in HL-60 extracts; assay type: cell-based, human; details: HL-60, 5 µM, 16 h
Experimental: Thus, using Western immunoblot analysis of HL-60 extracts, we investigated the expression and phosphorylation levels of ERK (as an indication of ERK activation), which is the downstream effector of the Ras/BRAF signalling pathway (Figure 6).
HL60s were seeded in T25 flasks at 50 × 10^4 cells/mL and cells were treated with either vehicle [0.5% EtOH (v/v)], 1–4, 9 or 52 (5 µM), as well as 1 (10 µM as reported). After 16 h, cells were collected and washed with PBS. Cell pellets were re-suspended in cold cell lysis buffer (radio-immunoprecipitation assay buffer) supplemented with 1% phosphatase inhibitor cocktail 2 and 3 (Sigma) and 10% protease inhibitor (Roche). Cells were lysed for 30 min on ice. Protein concentration was then determined by BCA assay. Lysates were boiled with Laemmli sample buffer [Tris-HCL 50 mM (pH 6.7), glycerol 10% (w/v), sodium dodecyl sulphate 2% (w/v), bromophenol blue 0.02% (w/v)] containing DTT […] for 10 min at 90 °C. Moreover, 20 µg of lysates were resolved by sodium dodecyl sulphate polyacrylamide gel electrophoresis (SDS-PAGE) and transferred onto PVDF transfer membrane (EMD Millipore). Membranes were blocked with 5% non-fat milk and probed with primary antibodies for ERK and phospho-ERK (Cell Signalling). Anti-GAPDH was used as a loading control (Calbiochem).
Figure 6 Western immunoblot of HL-60 cell extracts following incubation with compounds 2, 3, 4, 9, 52 and 1 (as a control). HL60 cells were seeded at 2 × 10^5 cells/mL and were treated with either vehicle [0.5% EtOH (v/v)], compounds 52, 2, 9, 3 and 4 (5 µM) or compound 1 (5 and (*) 10 µM, as in reference) for 16 h. Cells were lysed and equal amounts of protein were loaded and separated on 15% SDS-PAGE gels, transferred to PVDF membrane and probed with antibodies against total and phosphorylated ERK. Anti-GAPDH was used as a loading control. Results are representative of 2 independent experiments.
HL-60 cells were seeded in T25 flasks at 50 x10^4 cells/mL and treated with either vehicle [0.5% […]
After 16 hours, cells were […]
collected and washed with PBS. Cell pellets were re-suspended in cold cell lysis buffer (radio-immunoprecipitation assay buffer) supplemented with 1% phosphatase inhibitor cocktail 2 and 3 (Sigma) and 10% protease inhibitor (Roche). Cells were lysed for 30 minutes on ice.
Protein concentration was then determined by BCA assay. Lysates were boiled with laemmli sample buffer [Tris-HCL 50 mM (pH 6.7), glycerol 10% (w/v), sodium dodecyl sulphate 2% (w/v), bromophenol blue 0.02% (w/v)] containing DTT […] for 10 min. at 90 °C. Also 20 µg of lysates were resolved by sodium dodecyl sulphate polyacrylamide gel electrophoresis (SDS - PAGE) and transferred onto PVDF transfer membrane (EMD Millipore). Membranes were blocked with 5% non-fat milk and probed with primary antibodies for ERK and phospho-ERK (Cell Signaling). Anti-GAPDH was used as a loading control (Calbiochem).

SMILES | IC50 (HL-60 cells) [µM] | melting point [°C] | effect on ERK phosphorylation (Ras/BRAF pathway) [1]
N=C(N)Nc1ccc(Oc2cccc(N=C(N)Nc3ccc(I)cc3F)c2)cc1 [Compound 7, 1-(2-Fluoro-4-iodophenyl)-2-(3-(4-guanidinophenoxy)phenyl)guanidine dihydrochloride] | 8.63 ± 0.51 | – | –
NS(=O)(=O)Nc1ccc(Oc2cccc(Nc3ccc(Cl)c(C(F)(F)F)c3)c2)cc1 [Compound 75] | 9.14 ± 0.69 | 124 to 126 | –
N=C(N)Nc1ccc(Oc2cc(F)cc(Nc3ccc(Cl)c(C(F)(F)F)c3)c2)cc1 (as salt: hydrochloride) [Compound 36, 1-(4-(3-((4-Chloro-3-(trifluormethyl)phenyl)amino)-5-fluorophenoxy)phenyl)guanidine hydrochloride] | – | 92 to 94 | –
N=C(N)Nc1ccc(Oc2cccc(NC(=N)Nc3ccc(Br)cc3)c2)cn1 [Compound 51, 1-(4-Bromophenyl)-3-(3-((6-guanidinopyridin-3-yl)oxy)phenyl)guanidine dihydrochloride] | 9.37 ± 0.54 | – | –
N=C(N)Nc1ccc(Oc2cccc(N=C(N)Nc3ccc(Br)cc3)c2)cc1 [Compound 8, 1-(4-Bromophenyl)-2-(3-(4-guanidinophenoxy)phenyl)guanidine dihydrochloride] | 15.3 ± 1.98 | – | –
N=C(N)Nc1ccc(Oc2cccc(N=C(N)Nc3ccc(F)cc3)c2)cc1 [Compound 5, 1-(4-Fluorophenyl)-2-(3-(4-guanidinophenoxy)phenyl)guanidine dihydrochloride] | > 100 | – | –
N=C(N)Nc1ccc(Oc2cccc(NC(=N)Nc3ccc(F)c(F)c3)c2)cc1 [Compound 6, 1-(3:4-Di-fluorophenyl)-2-(3-(4-guanidinophenoxy)phenyl)guanidine dihydrochloride] | > 100 | – | –
N=C(N)Nc1cccc(Oc2ccc(N=C(N)Nc3ccc(Br)c(C(F)(F)F)c3)cc2)c1 [Compound 11, 1-(4-Bromo-3-(trifluoromethyl)phenyl)-2-(4-(3-guanidinophenoxy)phenyl)guanidine dihydrochloride] | 11 ± 0.64 | – | –
N=C(N)Nc1ccc(Oc2cccc(NC(=N)Nc3ccc(F)c(F)c3)c2)cc1 (as salt: hydrochloride) [Compound 6, 1-(3:4-Di-fluorophenyl)-2-(3-(4-guanidinophenoxy)phenyl)guanidine dihydrochloride] | – | 158 to 160 | –
N=C(N)Nc1cccc(Oc2ccc(N=C(N)Nc3ccc(I)cc3F)cc2)c1 [Compound 10, 1-(2-Fluoro-4-iodophenyl)-2-(4-(3-guanidinophenoxy)phenyl)guanidine dihydrochloride] | 8.85 ± 0.55 | – | –
N=C(N)Nc1ccc(Oc2cccc(NC(=N)Nc3ccc(F)c(F)c3)c2)cn1 [Compound 49, 1-(3,4-Di-fluorophenyl)-3-(3-((6-guanidinopyridin-3-yl)oxy)phenyl)guanidine dihydrochloride] | 11.6 ± 0.27 | – | –

Continued by falling IC50 (HL-60 cells), values first:

IC50 (HL-60 cells) [µM] | melting point [°C] | SMILES | effect on ERK phosphorylation (Ras/BRAF pathway) [1]
8.33 ± 0.32 | – | N=C(N)Nc1ccc(Oc2cccc(NC(=N)Nc3ccc(I)cc3F)c2)cn1 [Compound 50, 1-(2-Fluoro-4-iodophenyl)-3-(3-((6-guanidinopyridin-3-yl)oxy)phenyl)guanidine dihydrochloride] | –
7.5 ± 0.05 | 50 to 52 | Cl.N=C(N)Nc1ccc(Oc2cccc(Nc3ccc(Cl)cc3)c2)cc1 [Compound 28, 1-(4-(3-((4-Chlorophenyl)amino)phenoxy)phenyl)guanidine hydrochloride] | –
4.64 ± 0.83 | 93 to 95 | Cl.N=C(N)Nc1ccc(Oc2cccc(Nc3cccc(C(F)(F)F)c3)c2)cc1 [Compound 29, 1-(4-(3-((3-(Trifluoromethyl)phenyl)amino)phenoxy)phenyl)guanidine hydrochloride] | –
4.07 ± 0.1 | – | N=C(N)Nc1ccc(Oc2cc(F)cc(Nc3ccc(Cl)c(C(F)(F)F)c3)c2)cc1 [Compound 36, 1-(4-(3-((4-Chloro-3-(trifluormethyl)phenyl)amino)-5-fluorophenoxy)phenyl)guanidine hydrochloride] | –
3.23 ± 0.36 | 104 to 106 | Cl.N=C(N)Nc1ccc(Oc2cccc(Nc3cccc(S(F)(F)(F)(F)F)c3)c2)cc1 [Compound 30, 1-(4-(3-((3-(Pentafluorosulfanyl)phenyl)amino)phenoxy)phenyl)guanidine hydrochloride] | –
2.07 ± 0.33 | – | Cl.Cl.N=C(N)Nc1ccc(Oc2cccc(N=C(N)Nc3ccc(Br)c(C(F)(F)F)c3)c2)cc1 [Compound 9, 1-(4-Bromo-3-(trifluoromethyl)phenyl)-2-(3-(4-guanidinophenoxy)phenyl)guanidine dihydrochloride] | inhibiting ERK phosphorylation; also recorded: abrogates ERK activation
1.53 ± 0.23 | – | Cl.Cl.N=C(N)Nc1ccc(Oc2cccc(NC(=N)Nc3ccc(Br)c(C(F)(F)F)c3)c2)cn1 [Compound 52, 1-(4-Bromo-3-(trifluoromethyl)phenyl)-3-(3-((6-guanidinopyridin-3-yl)oxy)phenyl) guanidine dihydrochloride] | inhibiting ERK phosphorylation; also recorded: abrogates ERK activation
